For one assay, the target named is T1, human recombinant NET (Homo sapiens, UniProt P23975).
T1 construct: membranes)
Description: NET radioligand binding assay (scintillation proximity, [3H]nisoxetine). As to conditions: HEK293 cell membranes expressing human recombinant NET; [3H]nisoxetine; SPA; read-out: NET Ki. On the procedure:
(§1) Affinity of the compounds for monoamine transporters was determined by in vitro radioligand binding assays using cell membrane preparations derived from HEK293 cell lines stably expressing human recombinant DAT, NET or SERT receptor (Suven Life Sciences, Hyderabad, India).
(§2) Stable DAT cell lines were generated following procedures described in Eshelman et al., Molecular Pharmacology 45, 312-316; 1994. Stable NET cell lines were generated following procedures described in Pacholczyk et al., Nature 350, 350-354, 1991 and Galli et al., Journal Exp. Biol. 198, 2197-2212, 1995. Stable SERT cell lines were generated following procedures described in Ramamoorthy et al., Proc Natl Acad Sci USA 90, 2542-246, 1993.
(§3) Cell membranes were obtained from the above-referenced cell lines by manually homogenizing previously frozen cell pellets in Tris-HCl buffer and serially centrifugating and re-extracting the preparations according procedures described in Subbu et al., Journal Pharmacol ExpTher 327, 982-990, 2008.
(§4) A scintillation proximity assay was used to measure receptor binding. Homogenized membrane preparations (final protein concentration 8-15 ug/well) were pre-incubated with WGA PVT SPA beads (0.5 mg/well) for 5 minutes. Binding was initiated by adding high affinity ligands and test compounds (0.1 nM to 10 μM) or reference/positive control ligands to the membrane-bead complex. Plates were incubated for three hours and raw data counts recorded using a liquid scintillation counter (MicroBetaTriLux Counter, Perkin Elmer). Inhibition constants (Ki) were calculated using GraphPad Prism software (version 4.0).
NET receptor binding was determined using procedures described in Mason et al., The Journal of Pharmacology and Experimental Therapeutics 323:720-729, 2007; and Eshleman et al., The Journal of Pharmacology and Experimental Therapeutics289:877-885, 1999. A mixture of [3H]nisoxetine hydrochloride (N-methyl-[3H]nisoxetine, Perkin Elmer) and bead-membrane complex was added to wells containing test compound. Wells containing unlabeled nisoxetine (100 uM, Sigma) were used to define non-specific NET binding. Total radioligand was defined using assay buffer containing 1% DMSO in the presence of [3H]nisoxetine. NET Ki values were calculated using GraphPad Prism software (version 4.0).
A general note: SPA uses beads or plates that emit light when radiolabelled molecules are held near them.

In the next assay the target is T2, human recombinant SERT (Homo sapiens, UniProt P31645).
T2 construct: membranes)
T2 sequence (P31645 whole entry): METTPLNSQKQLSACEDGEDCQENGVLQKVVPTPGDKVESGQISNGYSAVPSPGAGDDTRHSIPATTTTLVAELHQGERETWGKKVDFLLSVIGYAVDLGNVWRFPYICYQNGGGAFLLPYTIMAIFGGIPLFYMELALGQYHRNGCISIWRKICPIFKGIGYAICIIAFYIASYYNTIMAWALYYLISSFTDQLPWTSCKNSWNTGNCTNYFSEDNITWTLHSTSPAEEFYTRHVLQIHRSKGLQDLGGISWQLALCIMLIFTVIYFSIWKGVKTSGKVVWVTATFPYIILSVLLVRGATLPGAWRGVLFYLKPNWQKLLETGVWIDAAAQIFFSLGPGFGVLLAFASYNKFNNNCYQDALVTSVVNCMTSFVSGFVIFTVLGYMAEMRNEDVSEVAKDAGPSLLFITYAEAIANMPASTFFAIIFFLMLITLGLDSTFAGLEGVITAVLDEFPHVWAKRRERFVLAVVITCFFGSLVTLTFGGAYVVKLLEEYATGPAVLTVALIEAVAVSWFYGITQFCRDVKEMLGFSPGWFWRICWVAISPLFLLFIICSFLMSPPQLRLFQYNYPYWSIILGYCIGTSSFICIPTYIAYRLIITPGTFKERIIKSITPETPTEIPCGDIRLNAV
Put plainly: SERT radioligand binding assay (scintillation proximity, [3H]citalopram). The settings on record: HEK293 cell membranes expressing human recombinant SERT; [3H]citalopram; SPA; read-out: SERT Ki. Here is the method: as §1, §2, §3, §4
SERT receptor binding was determined using procedures described in Owens et al., The Journal of Pharmacology and Experimental Therapeutics 283:1305-1322, 1997. A mixture of [3H]citalopram (N-methyl-[3H]citalopram, Perkin Elmer) and bead-membrane complex was added to wells containing test compound. Non-specific binding was determined using wells containing venlafaxine hydrochloride (100 uM, Sigma). Total radioligand was determined using assay buffer containing 1% DMSO in the presence of [3H]citalopram. SERT Ki values were calculated using GraphPad Prism software (version 4.0).

A further assay concerns the target human recombinant DAT (Homo sapiens, UniProt Q01959). Description: DAT radioligand binding assay (scintillation proximity, [3H]WIN-35428). Here is the method:
as §1, §2, §3, §4
DAT receptor binding was determined using procedures described in Skolnick et al., European Journal of Pharmacology, 461(2-3):99-104, 2003; and Eshleman et al., The Journal of Pharmacology and Experimental Therapeutics 289:877-885, 1999. A mixture of [3H]WIN-35428 (N-methyl 3H-WIN-35428, Perkin Elmer) and bead-membrane complex was added to wells containing test compound. Wells containing nomifensine maleate ([…], Sigma) were used to define non-specific […] binding. Total radioligand was defined by assay buffer containing 1% DMSO in the presence of [3H]WIN-35428. DAT Ki values were calculated using GraphPad Prism software (version 4.0).

Read-outs that look alike come from different tables or passages of the source. A value given as a limit tells only on which side of the number the result lay.

For 24 molecules, Ki results are on record in patent US20150057443A1, “Cycloalkyl Amine Compounds” (Prexa Pharmaceuticals, Inc., priority 2013, published 2015).

T1 sequence (P23975 whole entry): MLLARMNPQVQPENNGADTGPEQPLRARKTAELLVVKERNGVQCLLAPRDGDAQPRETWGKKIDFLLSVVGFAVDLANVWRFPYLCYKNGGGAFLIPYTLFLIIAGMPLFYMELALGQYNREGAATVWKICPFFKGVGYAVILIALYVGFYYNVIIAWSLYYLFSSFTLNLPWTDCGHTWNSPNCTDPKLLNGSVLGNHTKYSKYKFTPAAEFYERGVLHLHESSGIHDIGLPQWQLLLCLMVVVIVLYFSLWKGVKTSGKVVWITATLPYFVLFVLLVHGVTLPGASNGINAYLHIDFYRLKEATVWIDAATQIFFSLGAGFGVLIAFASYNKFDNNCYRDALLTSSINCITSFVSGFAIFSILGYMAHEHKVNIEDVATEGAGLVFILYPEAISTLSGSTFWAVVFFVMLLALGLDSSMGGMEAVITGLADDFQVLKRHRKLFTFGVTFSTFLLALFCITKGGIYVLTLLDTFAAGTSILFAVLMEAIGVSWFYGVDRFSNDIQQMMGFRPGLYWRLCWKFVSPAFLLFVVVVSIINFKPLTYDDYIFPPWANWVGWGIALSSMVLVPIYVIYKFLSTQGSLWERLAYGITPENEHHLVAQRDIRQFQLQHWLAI
Chain of human recombinant DAT (Q01959 whole entry): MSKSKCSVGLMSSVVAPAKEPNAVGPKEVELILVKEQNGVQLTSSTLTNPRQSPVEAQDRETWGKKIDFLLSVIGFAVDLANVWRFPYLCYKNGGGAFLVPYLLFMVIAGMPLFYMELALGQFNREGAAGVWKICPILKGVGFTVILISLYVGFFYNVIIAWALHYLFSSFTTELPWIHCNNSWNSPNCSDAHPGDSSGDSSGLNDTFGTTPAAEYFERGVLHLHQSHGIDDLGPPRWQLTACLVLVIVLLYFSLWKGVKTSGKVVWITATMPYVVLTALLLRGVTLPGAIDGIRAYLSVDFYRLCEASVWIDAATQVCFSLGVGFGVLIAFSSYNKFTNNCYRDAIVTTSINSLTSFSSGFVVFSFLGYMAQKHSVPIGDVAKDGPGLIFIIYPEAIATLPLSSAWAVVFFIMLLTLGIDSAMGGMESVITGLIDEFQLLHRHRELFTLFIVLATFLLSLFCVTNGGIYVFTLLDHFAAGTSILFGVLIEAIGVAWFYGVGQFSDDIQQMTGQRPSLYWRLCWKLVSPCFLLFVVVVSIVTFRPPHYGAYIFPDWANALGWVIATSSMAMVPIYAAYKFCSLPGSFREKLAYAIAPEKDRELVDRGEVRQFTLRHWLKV

As a reminder, the Ki is a measure of affinity in units of concentration, obtained from inhibition or displacement. Take `Clc1ccc(C2(CN3CCCCC3)CCC2)cc1Cl` [Compound 3]: the Ki was in the range of 11 to 100 nM on human recombinant NET, 101 to 500 nM on human recombinant SERT and 11 to 100 nM at human recombinant DAT.
As to `CC(O)(CN1CCCCC1)C1(c2ccc(Cl)c(Cl)c2)CCC1` (stereo not drawn) [Compound 71, 1-{2-[1-(3,4-dichlorophenyl)cyclobutyl]-2-hydroxypropyl}piperidin-1-ium chloride], the Ki at human recombinant NET is 101 to 500 nM; at human recombinant SERT, more than 500 nM; at human recombinant DAT, 11 to 100 nM.
On the same counts, the results for `OC(CN1CC2CC1CO2)C1(c2ccc(Cl)c(Cl)c2)CCC1` (stereo not drawn) [Compound 27, 5-{2-[1-(3,4-Dichlorophenyl)cyclobutyl]-2-hydroxyethyl}-2-oxa-5-azabicyclo[2.2.1]heptan-5-ium chloride] are 101 to 500 nM, more than 500 nM and 11 to 100 nM.
Consider `CCCN(CC)CC(O)C1(c2ccc(Cl)c(Cl)c2)CCC1` (stereo not drawn) [Compound 48, {2-[1-(3,4-Dichlorophenyl)cyclobutyl]-2-hydroxyethyl}(ethyl)propylazanium chloride], for which the Ki fell in the range of 11 to 100 nM on human recombinant NET, 101 to 500 nM on human recombinant SERT and 11 to 100 nM on human recombinant DAT.
For `CC(C)NCC(O)C1(c2ccc(Cl)c(Cl)c2)CCC1` (stereo not drawn) [Compound 19, {2-[1-(3,4-dichlorophenyl)cyclobutyl]-2-hydroxyethyl}(propan-2-yl)azanium chloride], the Ki was in the range of 11 to 100 nM at human recombinant NET, 101 to 500 nM on human recombinant SERT and 11 to 100 nM on human recombinant DAT.
Regarding `OC(CN1CCCCC1)C1(c2ccc(Cl)cc2)CCC1` (stereo not drawn) [Compound 6, 1-{2-[1-(4-Chlorophenyl)cyclobutyl]-2-hydroxyethyl}piperidin-1-ium chloride], the Ki at human recombinant NET, on human recombinant SERT and at human recombinant DAT was more than 500 nM in each case.
For `OC(CN1CCCCCC1)C1(c2ccc(Cl)c(Cl)c2)CCC1` (stereo not drawn) [Compound 16, 1-{2-[1-(3,4-Dichlorophenyl)cyclobutyl]-2-hydroxyethyl}azepan-1-ium chloride], the Ki at human recombinant NET is 101 to 500 nM; on human recombinant SERT it was more than 500 nM; at human recombinant DAT, 11 to 100 nM.
For `CCN(CC)CC(O)C1(c2ccc(Cl)c(Cl)c2)CCC1` (stereo not drawn) [Compound 18, {2-[1-(3,4-Dichlorophenyl)cyclobutyl]-2-hydroxyethyl}diethylazanium chloride], the Ki was 11 to 100 nM at human recombinant NET, more than 500 nM at human recombinant SERT and 11 to 100 nM on human recombinant DAT.
For `CC(F)C(C)NCC(O)C1(c2ccc(Cl)c(Cl)c2)CCC1` (stereo not drawn) [Compound 42, {2-[1-(3,4-dichlorophenyl)cyclobutyl]-2-hydroxyethyl}(3-fluorobutan-2-yl)azanium chloride], the Ki at human recombinant NET is 101 to 500 nM; on human recombinant SERT, 101 to 500 nM; on human recombinant DAT, 11 to 100 nM.
As for `OC(CNC1CCC1)C1(c2ccc(Cl)c(Cl)c2)CCC1` (stereo not drawn) [Compound 36, N-{2-[1-(3,4-Dichlorophenyl)cyclobutyl]-2-hydroxyethyl}cyclobutanaminium chloride], the Ki was in the range of 101 to 500 nM on human recombinant NET, 101 to 500 nM at human recombinant SERT and 11 to 100 nM at human recombinant DAT.
Regarding `CC(C)(C)NCC(O)C1(c2ccc(Cl)c(Cl)c2)CCC1` (stereo not drawn) [Compound 20, tert-butyl({2-[1-(3,4-dichlorophenyl)cyclobutyl]-2-hydroxyethyl})azanium chloride], the values for the Ki on human recombinant NET, at human recombinant SERT and at human recombinant DAT were 11 to 100 nM, 101 to 500 nM and 11 to 100 nM, respectively.
On to `CCN(CC(O)C1(c2ccc(Cl)c(Cl)c2)CCC1)C(C)C` (stereo not drawn) [Compound 47, {2-[1-(3,4-Dichlorophenyl)cyclobutyl]-2-hydroxyethyl}(ethyl)(propan-2-yl)azanium chloride], for which the results for the Ki on human recombinant NET, on human recombinant SERT and at human recombinant DAT were 11 to 100 nM, 101 to 500 nM and 11 to 100 nM, respectively.
For `CC1(C)COCCN1CC(O)C1(c2ccc(Cl)c(Cl)c2)CCC1` (stereo not drawn) [Compound 31, 4-{2-[1-(3,4-dichlorophenyl)cyclobutyl]-2-hydroxyethyl}-3,3-dimethylmorpholin-4-ium chloride], the results for the Ki at human recombinant NET, at human recombinant SERT and on human recombinant DAT were 11 to 100 nM, 11 to 100 nM and less than 10 nM, respectively.
As for `OC(CN1CCCCC1)C1(c2ccc(Cl)c(Cl)c2)CCC1` (stereo not drawn) [Compound 7, 1-{2-[1-(3,4-Dichlorophenyl)cyclobutyl]-2-hydroxyethyl}piperidin-1-ium chloride], the Ki at human recombinant NET was 101 to 500 nM; on human recombinant SERT, more than 500 nM; on human recombinant DAT, 11 to 100 nM.
On the same counts, the results for `OC(CN1CC2CCC1C2)C1(c2ccc(Cl)c(Cl)c2)CCC1` (stereo not drawn) [Compound 25, 2-{2-[1-(3,4-Dichlorophenyl)cyclobutyl]-2-hydroxyethyl}-2-azabicyclo[2.2.1]heptan-2-ium chloride] are 11 to 100 nM, 101 to 500 nM and 11 to 100 nM.
As to `O=C(CN1CCCCC1)C1(c2ccc(Cl)c(Cl)c2)CCCC1` [Compound 61, 1-{2-[1-(3,4-dichlorophenyl)cyclopentyl]-2-oxoethyl}piperidin-1-ium chloride], the Ki on human recombinant NET is more than 500 nM; at human recombinant SERT, more than 500 nM; on human recombinant DAT, 11 to 100 nM.
Consider `Clc1cccc(C2(CN3CCCCC3)CCC2)c1` [Compound 2], for which the inhibition constant (Ki) on human recombinant NET, on human recombinant SERT and on human recombinant DAT was more than 500 nM throughout.
With `OC(CN1CCC(F)(F)CC1)C1(c2ccc(Cl)c(Cl)c2)CCC1` (stereo not drawn) [Compound 24, 1-{2-[1-(3,4-Dichlorophenyl)cyclobutyl]-2-hydroxyethyl}-4,4-difluoropiperidin-1-ium chloride], the Ki is more than 500 nM on human recombinant NET, 101 to 500 nM at human recombinant SERT and less than 10 nM on human recombinant DAT.
`COC1CCCN(CC(O)C2(c3ccc(Cl)c(Cl)c3)CCC2)C1` (stereo not drawn) [Compound 33, 1-{2-[1-(3,4-Dichlorophenyl)cyclobutyl]-2-hydroxyethyl}-3-methoxypiperidin-1-ium chloride]: the Ki at human recombinant NET is 101 to 500 nM; at human recombinant SERT, more than 500 nM; on human recombinant DAT, less than 10 nM.
With “1-{2-[1-(3-Chlorophenyl)cyclobutyl]-2-hydroxyethyl}-3,3-dimethylpiperidin-1-ium chloride [Compound 11]”, the Ki is more than 500 nM at human recombinant NET; more than 500 nM at human recombinant SERT; more than 500 nM on human recombinant DAT (HEK293 cell membranes expressing human recombinant DAT, [3H]WIN-35428, SPA, read-out: DAT Ki).
In the case of `OC(CN1CCCCC1)C1(c2ccccc2)CCC1` (stereo not drawn) [Compound 5, 1-[2-hydroxy-2-(1-phenylcyclobutyl)ethyl]piperidin-1-ium chloride], the Ki at human recombinant NET, on human recombinant SERT and on human recombinant DAT was more than 500 nM each time.
With `OC(CN1CCCCC1)C1(c2ccc(Cl)c(Cl)c2)CCCC1` (stereo not drawn) [Compound 60, 1-{2-[1-(3,4-dichlorophenyl)cyclopentyl]-2-hydroxyethyl}piperidin-1-ium chloride], the values for the Ki on human recombinant NET, on human recombinant SERT and at human recombinant DAT were 101 to 500 nM, 101 to 500 nM and 11 to 100 nM, respectively.
With `COC(CN1CCCCC1)C1(c2ccc(Cl)c(Cl)c2)CCC1` (stereo not drawn) [Compound 59, 1-{2-[1-(3,4-dichlorophenyl)cyclobutyl]-2-methoxyethyl}piperidin-1-ium chloride], the Ki on human recombinant NET, at human recombinant SERT and at human recombinant DAT was more than 500 nM each time.
On to `CC1(NCC(O)C2(c3ccc(Cl)c(Cl)c3)CCC2)CC1` (stereo not drawn) [Compound 34, N-{2-[1-(3,4-Dichlorophenyl)cyclobutyl]-2-hydroxyethyl}-1-methylcyclopropan-1-aminium chloride], for which the Ki on human recombinant NET lay within 11 to 100 nM; at human recombinant SERT, 101 to 500 nM; on human recombinant DAT, 11 to 100 nM.
